Measurements reported in the supplement of paper PMC9663587.

Experiments:
SUM229PE = assay: GRmax, 72 h; higher = less effect;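 further: breast cell lines in 384-well plates, nine doses across a 10^4 range, Dye Drop imaging of viable cells vs DMSO and time-zero plates, GR 0 means no net growth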
184A1 [1] = assay: GRmax, 72 h; higher = less effect;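 further: breast cell lines in 384-well plates, nine doses across a 10^4 range, Dye Drop imaging of viable cells vs DMSO and time-zero plates, GR 0 means no net growth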
HS578T = assay: GRmax, 72 h; higher = less effect;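 further: breast cell lines in 384-well plates, nine doses across a 10^4 range, Dye Drop imaging of viable cells vs DMSO and time-zero plates, GR 0 means no net growth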
HCC38 = assay: GRmax, 72 h; higher = less effect;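 further: breast cell lines in 384-well plates, nine doses across a 10^4 range, Dye Drop imaging of viable cells vs DMSO and time-zero plates, GR 0 means no net growth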
PDX1328 = assay: GRmax, 72 h; higher = less effect
SUM190PT = assay: GRmax, 72 h; higher = less effect
HCC1143 = assay: GRmax, 72 h; higher = less effect
MDAMB468 = assay: GRmax, 72 h; higher = less effect
MCF7 = assay: GRmax, 72 h; higher = less effect
HCC202 = assay: GRmax, 72 h; higher = less effect
184A1 [2] = assay: area over the GR curve, 72 h; higher = more effect;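 further: Dye Drop or Deep Dye Drop imaging of viable cells in 384-well plates (Hoechst nuclei, LIVE/DEAD dye), nine half-log doses, GR normalized to DMSO controls and time-zero plates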
HCC1187 = assay: area over the GR curve, 72 h; higher = more effect;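 further: Dye Drop or Deep Dye Drop imaging of viable cells in 384-well plates (Hoechst nuclei, LIVE/DEAD dye), nine half-log doses, GR normalized to DMSO controls and time-zero plates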
HCC1395 = assay: area over the GR curve, 72 h; higher = more effect;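 further: Dye Drop or Deep Dye Drop imaging of viable cells in 384-well plates (Hoechst nuclei, LIVE/DEAD dye), nine half-log doses, GR normalized to DMSO controls and time-zero plates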

Compound | GRmax, 72 h (SUM229PE) | GRmax, 72 h (184A1 [1]) | GRmax, 72 h (HS578T) | GRmax, 72 h (HCC38) | GRmax, 72 h (PDX1328) | GRmax, 72 h (SUM190PT) | GRmax, 72 h (HCC1143) | GRmax, 72 h (MDAMB468) | GRmax, 72 h (MCF7) | GRmax, 72 h (HCC202) | area over the GR curve (184A1 [2]) | area over the GR curve (HCC1187) | area over the GR curve (HCC1395)
CCC(=O)Nc1ccc(C(=O)Nc2ccc(Nc3ncc4c(n3)N(C)c3ccc(C)cc3C(=O)N4C)cc2)cc1 [FMF-03-145-1] | -0.209 GR | -0.0063 GR | -0.183 GR | -0.376 GR | 0.128 GR | 0.0989 GR | 0.09 GR | -0.46 GR | 0.0265 GR | 0.23 GR | 1 GR | 1.51 GR | 0.52 GR
COc1cc(N2CCN(C)CC2)ccc1Nc1ncc2c(n1)N(C)c1ccccc1C(=O)N2CC(F)(F)F [FMF-03-146-1] | 0.999 GR | 1.04 GR | 0.944 GR | 0.9 GR | 0.893 GR | 0.886 GR | 0.815 GR | 0.706 GR | 0.78 GR | 0.892 GR | 0.0018 GR | -0.332 GR | 0.163 GR
CN1CC[C@H](c2c(O)cc(O)c3c(=O)cc(-c4ccccc4Cl)oc23)[C@H](O)C1 [Flavopiridol] (max 1 µM) | -0.181 GR | -0.329 GR | -0.256 GR | -0.448 GR | -0.0976 GR | -0.324 GR | -0.316 GR | -0.351 GR | -0.291 GR | 0.027 GR | 0.418 GR | 0.0933 GR | 0.339 GR
CC(C)n1nc(-c2ccc3oc(N)nc3c2)c2c(N)ncnc21 [INK128/MLN0128] (max 3.162 µM) | 0.219 GR | 0.139 GR | -0.0708 GR | -0.0087 GR | -0.159 GR | -0.425 GR | 0.0314 GR | 0.0572 GR | -0.045 GR | -0.01 GR | 0.581 GR | 0.416 GR | 0.557 GR
CC(C)NC[C@@H](C(=O)N1CCN(c2ncnc3c2[C@H](C)C[C@H]3O)CC1)c1ccc(Cl)cc1 [Ipatasertib/GDC0068] (max 10 µM) | 0.499 GR | 0.631 GR | 0.442 GR | 0.706 GR | 0.704 GR | 0.525 GR | 0.751 GR | 0.309 GR | 0.25 GR | 0.306 GR | 0.12 GR | 0.286 GR | 0.278 GR
CN(C)C(=O)c1cc2cnc(Nc3ccc(N4CCNCC4)cn3)nc2n1C1CCCC1 [LEE011/Ribociclib] (max 10 µM) | 0.576 GR | 0.11 GR | 0.376 GR | 0.241 GR | 0.265 GR | 0.199 GR | 0.298 GR | 0.947 GR | 0.31 GR | 0.778 GR | 0.449 GR | -0.0536 GR | 0.323 GR
CCNC(=O)c1noc(-c2cc(C(C)C)c(O)cc2O)c1-c1ccc(CN2CCOCC2)cc1 [Luminespib/NVP-AUY922] (max 1 µM) | -0.293 GR | 0.0336 GR | -0.114 GR | -0.209 GR | -0.253 GR | -0.433 GR | -0.192 GR | -0.174 GR | 0.0015 GR | 0.115 GR | 0.539 GR | 0.919 GR | 0.617 GR
CCOc1cc2ncc(C#N)c(Nc3ccc(OCc4ccccn4)c(Cl)c3)c2cc1NC(=O)/C=C/CN(C)C [Neratinib/HKI272] (max 3.162 µM) | 0.205 GR | 0.162 GR | -0.161 GR | 0.457 GR | -0.0735 GR | 0.42 GR | 0.0791 GR | -0.383 GR | 0.0582 GR | 0.0762 GR | 0.421 GR | 0.181 GR | 0.142 GR
O=C(c1cc(Cc2n[nH]c(=O)c3ccccc23)ccc1F)N1CCN(C(=O)C2CC2)CC1 [Olaparib/AZD2281] (max 10 µM) | 0.75 GR | 0.563 GR | 0.444 GR | 0.425 GR | 0.631 GR | 0.545 GR | 0.456 GR | 0.341 GR | 0.514 GR | 0.606 GR | 0.0908 GR | 0.157 GR | 0.253 GR
CC(=O)O[C@H]1C(=O)[C@@]2(C)[C@H]([C@H](OC(=O)c3ccccc3)[C@]3(O)C[C@H](OC(=O)[C@H](O)[C@@H](NC(=O)c4ccccc4)c4ccccc4)C(C)=C1C3(C)C)[C@]1(OC(C)=O)CO[C@@H]1C[C@@H]2O [Paclitaxel] (max 1 µM) | -0.377 GR | -0.268 GR | -0.375 GR | -0.308 GR | -0.403 GR | -0.283 GR | -0.335 GR | -0.522 GR | -0.106 GR | 0.0855 GR | 0.75 GR | 1.34 GR | 0.839 GR
CS(=O)(=O)N1CCN(Cc2cc3nc(-c4cccc5[nH]ncc45)nc(N4CCOCC4)c3s2)CC1 [Pictilisib/GDC0941] (max 10 µM) | 0.0426 GR | 0.0537 GR | 0.0345 GR | 0.357 GR | -0.167 GR | 0.0145 GR | -0.129 GR | -0.0613 GR | -0.159 GR | -0.0303 GR | 0.276 GR | 0.374 GR | 0.226 GR
O=C1NC(=NCc2cccs2)SC1=Cc1ccc2ncccc2c1 [R0-3306] (max 10 µM) | -0.07 GR | -0.142 GR | -0.0503 GR | -0.239 GR | 0.399 GR | -0.11 GR | -0.114 GR | -0.271 GR | 0.067 GR | 0.203 GR | 0.207 GR | 0.017 GR | 0.418 GR
CNCc1ccc(-c2[nH]c3cc(F)cc4c3c2CCNC4=O)cc1 [Rucaparib] (max 10 µM) | 0.888 GR | 0.748 GR | 0.683 GR | 0.652 GR | 0.634 GR | 0.771 GR | 0.785 GR | 0.345 GR | 0.635 GR | 0.523 GR | 0.0986 GR | -0.119 GR | 0.385 GR
CC1(N)CCN(c2cnc(-c3cccc(Cl)c3Cl)c(N)n2)CC1 [SHP099] (max 10 µM) | 0.936 GR | 0.279 GR | 0.632 GR | 0.523 GR | 0.58 GR | 0.749 GR | 0.796 GR | 0.567 GR | 0.847 GR | 0.733 GR | 0.118 GR | -0.341 GR | 0.0738 GR
CN1CCN(CCOc2cc(OC3CCOCC3)c3c(Nc4c(Cl)ccc5c4OCO5)ncnc3c2)CC1 [Saracatinib/AZD0530] (max 10 µM) | 0.236 GR | 0.24 GR | 0.189 GR | 0.614 GR | -0.108 GR | 0.581 GR | 0.388 GR | 0.178 GR | 0.274 GR | -0.22 GR | 0.0722 GR | 0.457 GR | 0.111 GR
Cc1cc(C(C)Nc2ccccc2)c2nc(N3CCOCC3)cc(=O)n2c1 (stereo not drawn) [TGX221] (max 10 µM) | 0.994 GR | 1 GR | 0.709 GR | 0.952 GR | 0.778 GR | 0.989 GR | 0.918 GR | 0.723 GR | 0.789 GR | 0.782 GR | 0.0024 GR | 0.305 GR | 0.0832 GR
CN(C)C/C=C/C(=O)Nc1ccc(C(=O)Nc2cccc(Nc3ncc(Cl)c(-c4c[nH]c5ccccc45)n3)c2)cc1 [THZ1] (max 1 µM) | -0.297 GR | -0.232 GR | -0.371 GR | -0.568 GR | -0.171 GR | -0.467 GR | -0.318 GR | -0.377 GR | -0.469 GR | -0.0084 GR | 0.528 GR | 0.71 GR | 0.609 GR
CN(C)C/C=C/C(=O)Nc1ccc(C(=O)N2CCC[C@@H](Nc3ncc(Cl)c(-c4c[nH]c5ccccc45)n3)C2)cc1 [THZ531] (max 1 µM) | -0.146 GR | -0.377 GR | -0.246 GR | -0.337 GR | -0.184 GR | -0.725 GR | -0.23 GR | -0.153 GR | -0.367 GR | 0.0684 GR | 0.214 GR | 0.129 GR | 0.37 GR
CN(C)C/C=C/C(=O)Nc1ccc(C(=O)Nc2cccc(Nc3cc(-c4c[nH]c5ccccc45)ncn3)c2)cc1 [THZ-P1-2] (max 10 µM) | -0.655 GR | -0.344 GR | 0.92 GR | -0.509 GR | 0.656 GR | -0.218 GR | -0.404 GR | -0.523 GR | -0.708 GR | -0.2 GR | 0.351 GR | 0.331 GR | 0.442 GR
Cc1nc(-c2cn3c(n2)-c2ccc(-c4cnn(C(C)(C)C(N)=O)c4)cc2OCC3)n(C(C)C)n1 [Taselisib/GDC0032] (max 10 µM) | -0.0501 GR | 0.0652 GR | -0.0179 GR | 0.0628 GR | -0.0629 GR | -0.253 GR | -0.0942 GR | 0.0046 GR | -0.255 GR | 0.0192 GR | 0.457 GR | 0.497 GR | 0.208 GR
O=C1NC(=O)[C@@H](c2cn3c4c(cccc24)CCC3)[C@@H]1c1c[nH]c2ccccc12 [Tivantinib/ARQ197] (max 10 µM) | -0.423 GR | -0.121 GR | -0.32 GR | -0.27 GR | -0.479 GR | -0.138 GR | -0.312 GR | -0.455 GR | -0.0512 GR | 0.114 GR | 0.582 GR | 0.891 GR | 0.372 GR
Nc1ccc(-c2ccc3ncc4ccc(=O)n(-c5cccc(C(F)(F)F)c5)c4c3c2)cn1 [Torin2] (max 1 µM) | -0.0085 GR | 0.0958 GR | -0.217 GR | -0.211 GR | -0.249 GR | -0.391 GR | -0.153 GR | -0.0415 GR | -0.133 GR | 0.0177 GR | 0.46 GR | 0.588 GR | 0.441 GR
CC[C@@H]1C(=O)N(C)c2cnc(Nc3ccc(C(=O)N[C@H]4CC[C@H](N5CCN(CC6CC6)CC5)CC4)cc3OC)nc2N1C(C)C [Volasertib/BI6727] (max 1 µM) | -0.356 GR | -0.13 GR | -0.312 GR | -0.26 GR | -0.529 GR | -0.309 GR | -0.345 GR | -0.449 GR | -0.0338 GR | 0.224 GR | 0.54 GR | 0.883 GR | 0.759 GR
O=C(CCCCCCC(=O)Nc1ccccc1)NO [Vorinostat] (max 10 µM) | -0.0664 GR | -0.0468 GR | -0.169 GR | -0.285 GR | -0.285 GR | -0.431 GR | -0.253 GR | -0.119 GR | -0.175 GR | 0.104 GR | 0.188 GR | 0.303 GR | 0.099 GR
C=CC(=O)Nc1ccc(C(=O)Nc2[nH]nc3c2CN(C(=O)N[C@H](CN(C)C)c2ccccc2)C3(C)C)cc1 [YKL-5-124] (max 10 µM) | -0.0428 GR | -0.0615 GR | -0.445 GR | -0.39 GR | 0.177 GR | -0.39 GR | -0.0844 GR | -0.493 GR | -0.268 GR | -0.178 GR | 0.929 GR | 0.822 GR | 0.874 GR
CN1CCN(C(=O)c2ccc3cc(CCNc4ncnc5ccc(C#N)cc45)ccc3c2)CC1 [senexin b] (max 10 µM) | 0.696 GR | 0.809 GR | 0.765 GR | 0.614 GR | 1.02 GR | 0.248 GR | 0.452 GR | 0.132 GR | 0.474 GR | 0.705 GR | 0.107 GR | -0.306 GR | 0.264 GR
